Assay results: patent US20230263822A1, “MODULATION OF FACTOR 11 EXPRESSION” (Ionis Pharmaceuticals, Inc., priority 2008, published 2023)
Strand notation (5' to 3'): a small letter for the sugar, then the base; units joined by * are phosphorothioate-linked, units joined directly phosphodiester-linked; [ ] holds rarer units or linkages, { } end groups; capitals alone tell only the bases. e = 2'-O-(2-methoxyethyl) (MOE); [5mC] = 5-methylcytosine; d = 2'-deoxy (DNA)

Legend:
Type in all cases: cell-based
human Factor 11 mRNA [1] = assay: Dose-dependent inhibition of human Factor 11 in HepG2 cells, lipofectin 9.375-75 nM (Example 4); settings: for percent inhibition of Factor 11 at 9.375 nM / percent inhibition of Factor 11 at 18.75 nM / percent inhibition of Factor 11 at 37.5 nM / percent inhibition of Factor 11 at 75 nM: relative to untreated control cells
Method: (§1) Cells were plated at a density of 10,000 cells per well and transfected using lipofectin reagent with 9.375 nM, 18.75 nM, 37.5 nM and 75 nM concentrations of antisense oligonucleotide, as specified in Table 9. After a treatment period of approximately 16 hours, RNA was isolated from the cells and Factor 11 mRNA levels were measured by quantitative real-time PCR. Human Factor 11 primer probe set RTS 2966 was used to measure mRNA levels. Factor 11 mRNA levels were adjusted according to total RNA content, as measured by RIBOGREEN. Results are presented as percent inhibition of Factor 11, relative to untreated control cells.

human Factor 11 mRNA [2] = assay: Antisense inhibition of human Factor 11 in HepG2 cells by microwalk gapmers, lipofectin, 75 nM (Example 3)
In short: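 HepG2 cells (10,000/well) were transfected via lipofectin with 75 nM 20-mer MOE gapmers (phosphorothioate, 5-methyl-C) for about 24 h. Factor 11 mRNA was measured by qRT-PCR, normalized to RIBOGREEN total RNA, and given as percent inhibition versus untreated cells.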

human Factor 11 mRNA [3] = assay: Dose-dependent inhibition of human Factor 11 in HepG2 cells, electroporation 0.7-20 uM (Example 4); settings: for percent inhibition of Factor 11 at 0.7 μM / percent inhibition of Factor 11 at 2.2 μM / percent inhibition of Factor 11 at 6.7 μM / percent inhibition of Factor 11 at 20 μM: relative to untreated control cells
Method: as §1, with “The gapmers were also transfected via electroporation and their dose dependent inhibition of human Factor 11 mRNA was measured. Cells” for “Cells”, “20,000” for “10,000”, “via electroporation” for “using lipofectin reagent”, “0.7 μM, 2.2 μM, 6.7 μM,” for “9.375 nM, 18.75 nM, 37.5 nM”, “20 μM” for “75 nM”, “10.” for “9.”

[4] = HepG2, lipofectin, ~24 h, gapmers targeted to nucleobases 656 to 704 of SEQ ID NO: 1
[5] = HepG2 cells, lipofectin, gapmers targeted to nucleobases 1275 to 1318 of SEQ ID NO: 1
[6] = HepG2 cells, lipofectin, gapmers targeted to nucleobases 1018 to 1042 of SEQ ID NO: 1

In the case of “416896 (antisense eT*eT*eA*dT*dG*d[5mC]*d[5mC]*d[5mC]*dT*dT*d[5mC]*dA*dT*dG*dT*d[5mC]*dT*eA*eG*eG) [compound 416896]”, the IC50 (human Factor 11 mRNA [1]) is reported as 27 nM, the “percent inhibition of Factor 11 at 9.375 nM” value (human Factor 11 mRNA [1]) is reported as 22% and the “percent inhibition of Factor 11 at 18.75 nM” value (human Factor 11 mRNA [1]) is reported as 39%. For the same substance, the “percent inhibition of Factor 11 at 37.5 nM” value (human Factor 11 mRNA [1]) was 57%, the “percent inhibition of Factor 11 at 75 nM” value (human Factor 11 mRNA [1]) was 81% and the “% inhibition” value (human Factor 11 mRNA [2]; [4]) was 95%. The IC50 (human Factor 11 mRNA [3]) was 3200 nM, the “percent inhibition of Factor 11 at 0.7 μM” value (human Factor 11 mRNA [3]) was 12% and the “percent inhibition of Factor 11 at 2.2 μM” value (human Factor 11 mRNA [3]) was 35%. The “percent inhibition of Factor 11 at 6.7 μM” value (human Factor 11 mRNA [3]) was 81% and the “percent inhibition of Factor 11 at 20 μM” value (human Factor 11 mRNA [3]) was 89%.
For “416922 (antisense eG*e[5mC]*eA*d[5mC]*dA*dG*dT*dT*dT*d[5mC]*dT*dG*dG*d[5mC]*dA*dG*dG*e[5mC]*e[5mC]*eT) [compound 416922]”, the IC50 (human Factor 11 mRNA [1]) was 36 nM, the “percent inhibition of Factor 11 at 9.375 nM” value (human Factor 11 mRNA [1]) was 14% and the “percent inhibition of Factor 11 at 18.75 nM” value (human Factor 11 mRNA [1]) was 25%. For the same substance, the “percent inhibition of Factor 11 at 37.5 nM” value (human Factor 11 mRNA [1]) was 49%, the “percent inhibition of Factor 11 at 75 nM” value (human Factor 11 mRNA [1]) was 75% and the “% inhibition” value (human Factor 11 mRNA [2]; [5]) was 94%. The IC50 (human Factor 11 mRNA [3]) was 1700 nM, the “percent inhibition of Factor 11 at 0.7 μM” value (human Factor 11 mRNA [3]) was 35% and the “percent inhibition of Factor 11 at 2.2 μM” value (human Factor 11 mRNA [3]) was 51%. The “percent inhibition of Factor 11 at 6.7 μM” value (human Factor 11 mRNA [3]) was 77% and the “percent inhibition of Factor 11 at 20 μM” value (human Factor 11 mRNA [3]) was 91%.
With “416827 (antisense eT*eA*eT*eG*e[5mC]*d[5mC]*d[5mC]*dT*dT*d[5mC]*dA*dT*dG*dT*d[5mC]*eT*eA*eG*eG*eT) [compound 416827]” the IC50 (human Factor 11 mRNA [1]) was 23 nM, the “percent inhibition of Factor 11 at 9.375 nM” value (human Factor 11 mRNA [1]) was 31% and the “percent inhibition of Factor 11 at 18.75 nM” value (human Factor 11 mRNA [1]) was 42%. The “percent inhibition of Factor 11 at 37.5 nM” value (human Factor 11 mRNA [1]) was 62%, the “percent inhibition of Factor 11 at 75 nM” value (human Factor 11 mRNA [1]) was 77% and the “% inhibition” value (human Factor 11 mRNA [2]; [4]) was 93%. For the same substance, the IC50 (human Factor 11 mRNA [3]) was 1100 nM, the “percent inhibition of Factor 11 at 0.7 μM” value (human Factor 11 mRNA [3]) was 37% and the “percent inhibition of Factor 11 at 2.2 μM” value (human Factor 11 mRNA [3]) was 68%. For the same substance, the “percent inhibition of Factor 11 at 6.7 μM” value (human Factor 11 mRNA [3]) was 87% and the “percent inhibition of Factor 11 at 20 μM” value (human Factor 11 mRNA [3]) was 92%.
“417000 (antisense eT*eG*d[5mC]*dA*d[5mC]*dA*dG*dT*dT*dT*d[5mC]*dT*dG*dG*d[5mC]*eA*eG*eG*e[5mC]*e[5mC]) [compound 417000]” was tested, and the IC50 (human Factor 11 mRNA [1]) was 23 nM, the “percent inhibition of Factor 11 at 9.375 nM” value (human Factor 11 mRNA [1]) was 35% and the “percent inhibition of Factor 11 at 18.75 nM” value (human Factor 11 mRNA [1]) was 47%. The “percent inhibition of Factor 11 at 37.5 nM” value (human Factor 11 mRNA [1]) was 58%, the “percent inhibition of Factor 11 at 75 nM” value (human Factor 11 mRNA [1]) was 70% and the “% inhibition” value (human Factor 11 mRNA [2]; [5]) was 89%. The IC50 (human Factor 11 mRNA [3]) was 600 nM, the “percent inhibition of Factor 11 at 0.7 μM” value (human Factor 11 mRNA [3]) was 46% and the “percent inhibition of Factor 11 at 2.2 μM” value (human Factor 11 mRNA [3]) was 73%. The “percent inhibition of Factor 11 at 6.7 μM” value (human Factor 11 mRNA [3]) was 76% and the “percent inhibition of Factor 11 at 20 μM” value (human Factor 11 mRNA [3]) was 89%.
For “416973 (antisense eT*eT*dA*dT*dG*d[5mC]*d[5mC]*d[5mC]*dT*dT*d[5mC]*dA*dT*dG*dT*e[5mC]*eT*eA*eG*eG) [compound 416973]”, the IC50 (human Factor 11 mRNA [1]) was 3 nM, the “percent inhibition of Factor 11 at 9.375 nM” value (human Factor 11 mRNA [1]) was 60% and the “percent inhibition of Factor 11 at 18.75 nM” value (human Factor 11 mRNA [1]) was 75%. The “percent inhibition of Factor 11 at 37.5 nM” value (human Factor 11 mRNA [1]) was 85%, the “percent inhibition of Factor 11 at 75 nM” value (human Factor 11 mRNA [1]) was 87% and the “% inhibition” value (human Factor 11 mRNA [2]; [4]) was 92%. The IC50 (human Factor 11 mRNA [3]) was 2300 nM, the “percent inhibition of Factor 11 at 0.7 μM” value (human Factor 11 mRNA [3]) was 20% and the “percent inhibition of Factor 11 at 2.2 μM” value (human Factor 11 mRNA [3]) was 48%. The “percent inhibition of Factor 11 at 6.7 μM” value (human Factor 11 mRNA [3]) was 86% and the “percent inhibition of Factor 11 at 20 μM” value (human Factor 11 mRNA [3]) was 93%.
For “416985 (antisense eG*e[5mC]*dA*dA*d[5mC]*d[5mC]*dG*dG*dG*dA*dT*dG*dA*dT*dG*eA*eG*eT*eG*e[5mC]) [compound 416985]”, the IC50 (human Factor 11 mRNA [1]) was 49 nM, the “percent inhibition of Factor 11 at 9.375 nM” value (human Factor 11 mRNA [1]) was 17% and the “percent inhibition of Factor 11 at 18.75 nM” value (human Factor 11 mRNA [1]) was 30%. The “percent inhibition of Factor 11 at 37.5 nM” value (human Factor 11 mRNA [1]) was 47%, the “percent inhibition of Factor 11 at 75 nM” value (human Factor 11 mRNA [1]) was 57% and the “% inhibition” value (human Factor 11 mRNA [2]; [6]) was 88%. The IC50 (human Factor 11 mRNA [3]) was 5800 nM, the “percent inhibition of Factor 11 at 0.7 μM” value (human Factor 11 mRNA [3]) was 12% and the “percent inhibition of Factor 11 at 2.2 μM” value (human Factor 11 mRNA [3]) was 48%. The “percent inhibition of Factor 11 at 6.7 μM” value (human Factor 11 mRNA [3]) was 45% and the “percent inhibition of Factor 11 at 20 μM” value (human Factor 11 mRNA [3]) was 69%.
For “416984 (antisense e[5mC]*eA*dA*d[5mC]*d[5mC]*dG*dG*dG*dA*dT*dG*dA*dT*dG*dA*eG*eT*eG*e[5mC]*eA) [compound 416984]”, the IC50 (human Factor 11 mRNA [1]) was 22 nM, the “percent inhibition of Factor 11 at 9.375 nM” value (human Factor 11 mRNA [1]) was 26% and the “percent inhibition of Factor 11 at 18.75 nM” value (human Factor 11 mRNA [1]) was 50%. For the same substance, the “percent inhibition of Factor 11 at 37.5 nM” value (human Factor 11 mRNA [1]) was 62%, the “percent inhibition of Factor 11 at 75 nM” value (human Factor 11 mRNA [1]) was 81% and the “% inhibition” value (human Factor 11 mRNA [2]; [6]) was 89%. For the same substance, the IC50 (human Factor 11 mRNA [3]) was 1100 nM, the “percent inhibition of Factor 11 at 0.7 μM” value (human Factor 11 mRNA [3]) was 43% and the “percent inhibition of Factor 11 at 2.2 μM” value (human Factor 11 mRNA [3]) was 54%. The “percent inhibition of Factor 11 at 6.7 μM” value (human Factor 11 mRNA [3]) was 88% and the “percent inhibition of Factor 11 at 20 μM” value (human Factor 11 mRNA [3]) was 90%.
